Read-outs that look alike come from different tables or passages of the source.

Data on one compound can be found in patent US10472687B2, “Methods to identify antituberculosis compounds” (priority 2016, dated 2019).

For one experiment, the system named is MTB H37Rv wildtype. It is filed as cell-based, Mycobacterium tuberculosis.
In another experiment the test system is MTB H37Rv lacking Rv0324. It is filed as cell-based, Mycobacterium tuberculosis.
A further experiment concerns MTB H37Rv lacking Rv0880. Type of experiment: cell-based, Mycobacterium tuberculosis.
The test system of experiment [1] is MTB. Type of experiment: cell-based, Mycobacterium tuberculosis.
Experiment [2] relates to Rv2323c'::GFP strain (Rv0324-responsive promoter). It is filed as cell-based, Mycobacterium tuberculosis. The note with it: in the presence of BDQ, FIG. 2.
In experiment [3] the test system is MTB. Particulars: cited from earlier work.
Experiment [4] deals with mycobacterial F1Fo ATP synthase (Mycobacterium tuberculosis, UniProt P9WPS1+P9WPV7). The note with it: cited from earlier work.

`COc1nc2ccc(Br)cc2cc1[C@@H](c1ccccc1)[C@@](O)(CCN(C)C)c1cccc2ccccc12` [bedaquiline]: the “overall growth rate over seven days of treatment” value in the experiment on MTB H37Rv wildtype was “positive growth rate”. In the experiment on MTB H37Rv lacking Rv0324, the “greater survival deficiency compared to the wildtype” value was 1.8 log10 and the “overall growth over seven days of treatment” value is reported as “negative overall growth”. For the same compound, in the experiment with MTB H37Rv lacking Rv0880, the “greater survival deficiency compared to the wildtype” value is 1.3 -fold log10 and the “overall growth over seven days of treatment” value was “negative overall growth”. Moreover, in the experiment with MTB [1], the “decrease in Rv0880 expression” value is given as more than 2.0 absolute log2 fold-change, the “genes significantly differentially expressed compared to untreated samples” value is recorded as 1,121 genes and the “increase in Rv0324 expression upon bedaquiline treatment” value is recorded as more than 1.5 absolute log2 fold-change. Moreover, the “downregulated genes among the differentially expressed genes” value in the experiment on MTB [1] (15 μM BDQ, 48 and 96 hours combined) came out at 897 genes. Moreover, the “GFP fluorescence of the reporter strain” value in experiment [2] was “high level of fluorescence”. Also, the MTB killing result in the experiment with MTB [3] (after 96 hours) is “effective MTB killing occurs”. The bactericidal activity entry with MTB [3] (during the first 4-6 days) was “almost no bactericidal activity”. Also, the bactericidal activity result in the experiment with MTB [3] (first 96 hours after BDQ treatment, even at 30 times the MIC) is reported as “little bactericidal activity”. Moreover, the “selectivity for mycobacterial F1Fo ATP synthase” value in experiment [4] is recorded as “high selectivity”.
